In the supplement of paper PMC10331698:
± gives the standard deviation of the averaged measurements.

Assays:
Experiment in all cases: level (log10 ratio to DMSO vehicle control); higher = higher biomarker level / cell amount than vehicle control
[1] = compound: COC(=O)C(F)(F)C(F)(F)OC(F)(C(F)(F)F)C(F)(F)OC(F)=C(F)F [Methyl perfluoro(3-(1-ethenyloxypropan-2-yloxy)propanoate)]; settings: in DMSO
Experimental: (§1)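 BioMAP Diversity Plus panel of 12 human primary cell co-culture systems (3C, 4H, LPS, SAg, BT, BF4T, BE3C, CASM3C, HDF3CGF, KF3CT, MyoF, Mphg). Compounds were added 1 h before stimulation and left for 24 h (MyoF 48 h; BT 72 h for soluble read-outs or 6 d for IgG). Biomarkers were read by ELISA, cytotoxicity by SRB, PBMC viability and proliferation by Alamar Blue. Each well value was divided by the mean of 8 DMSO control wells on the same plate and log10 transformed; duplicate blinded samples were tested at 4 concentrations.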

Hexafluoroamylene glycol = compound: OCC(F)(F)C(F)(F)C(F)(F)CO [Hexafluoroamylene glycol]; settings: in DMSO
Experimental: as §1

[2] = compound: C=C(C)C(=O)OCCC(F)(F)C(F)(F)C(F)(F)C(F)(F)C(F)(F)C(F)(F)F [6:2 Fluorotelomer methacrylate]; settings: in DMSO
Experimental: as §1

[3] = compound: C=CC(=O)OCC(F)(F)C(F)(F)C(F)(F)COC(=O)C=C [1H,1H,5H,5H-Perfluoro-1,5-pentanediol diacrylate]; settings: 6700 nM; in DMSO
Experimental: as §1

[4] = compound: O=C(O)C=CC(F)(C(F)(F)F)C(F)(F)F [3-(Perfluoroisopropyl)-2-propenoic acid]; settings: in DMSO
Experimental: as §1

Octafluoroadipamide = compound: NC(=O)C(F)(F)C(F)(F)C(F)(F)C(F)(F)C(N)=O [Octafluoroadipamide]; settings: in DMSO
Experimental: as §1

[5] = compound: FC(F)(F)C(F)(F)C(F)(F)C(F)(F)C(F)(F)C(F)(F)CC1CO1 [3-(Perfluorohexyl)-1,2-epoxypropane]; settings: in DMSO
Experimental: as §1

[6] = compound: FC(F)(F)C(F)(F)C(F)(F)C(F)(F)C(F)(F)C(F)(F)C(F)(F)I [1-Iodopentadecafluoroheptane]; settings: in DMSO
Experimental: as §1

| Test System | level (log10) ([1]; 6700 nM) | level (log10) ([1]; 20000 nM) | level (log10) (Hexafluoroamylene glycol; 6700 nM) | level (log10) (Hexafluoroamylene glycol; 20000 nM) | level (log10) (Hexafluoroamylene glycol; 60000 nM) | level (log10) ([2]; 6700 nM) | level (log10) ([2]; 20000 nM) | level (log10) ([2]; 60000 nM) | level (log10) [3] | level (log10) ([4]; 6700 nM) | level (log10) ([4]; 20000 nM) | level (log10) ([4]; 60000 nM) | level (log10) (Octafluoroadipamide; 6700 nM) | level (log10) (Octafluoroadipamide; 20000 nM) | level (log10) (Octafluoroadipamide; 60000 nM) | level (log10) ([5]; 6700 nM) | level (log10) ([5]; 20000 nM) | level (log10) ([5]; 60000 nM) | level (log10) ([6]; 6700 nM) | level (log10) ([6]; 20000 nM) |
| --- | --- | --- | --- | --- | --- | --- | --- | --- | --- | --- | --- | --- | --- | --- | --- | --- | --- | --- | --- | --- |
| BE3C:EGFR | -0.04 ± 0.014 | -0.053 ± 0.031 | 0.0035 ± 0.005 | -0.0115 ± 0.0078 | 0.009 ± 0.0071 | 0.0045 ± 0.052 | 0.0085 ± 0.043 | 0.0135 ± 0.049 | -0.01 | 0.0005 ± 0.016 | 0.0085 ± 0.00071 | 0.004 ± 0.0014 | -0.019 ± 0.016 | -0.014 ± 0.0099 | 0.004 ± 0.04 | -0.001 ± 0.0085 | -0.0015 ± 0.0035 | 0.007 ± 0.013 | 0.014 ± 0.0071 | 0.0185 ± 0.026 |
| SAg:PBMC Cytotoxicity | -0.0115 ± 0.025 | 0.028 ± 0.044 | 0.0135 ± 0.00071 | 0.008 ± 0.014 | 0.005 ± 0.03 | -0.0305 ± 0.057 | 0.0085 ± 0.0021 | 0.015 ± 0.0099 | -0.111 ± 0.0035 | -0.0035 ± 0.0078 | 0.0015 ± 0.0035 | -0.005 ± 0.017 | 0.004 ± 0.014 | -0.0095 ± 0.0021 | 0.01 ± 0.027 | 0.01 ± 0.037 | -0.0055 ± 0.011 | 0.025 ± 0.0071 | -0.0165 ± 0.028 | 0.0265 ± 0.026 |
| SAg:CD62E/E-Selectin | -0.028 ± 0.0071 | -0.0615 ± 0.032 | -0.0415 ± 0.039 | -0.0015 ± 0.0035 | -0.0135 ± 0.00071 | -0.011 ± 0.038 | 0.0105 ± 0.015 | 0.0105 ± 0.0064 | -0.469 ± 0.1 | 0 ± 0.011 | 0.0045 ± 0.013 | -0.006 ± 0.0042 | 0.0015 ± 0.0078 | 0.0065 ± 0.022 | 0.0185 ± 0.028 | -0.008 ± 0.018 | 0.0005 ± 0.0035 | -0.012 ± 0.027 | -0.0415 ± 0.056 | -0.008 ± 0.044 |
| SAg:CXCL9/MIG | -0.0145 ± 0.021 | 0.0055 ± 0.0035 | -0.0015 ± 0.011 | -0.016 ± 0.016 | -0.003 ± 0.0071 | 0.007 ± 0.023 | 0.0085 ± 0.011 | 0.012 ± 0.025 | 0.0025 ± 0.0078 | -0.0105 ± 0.025 | 0.013 | -0.006 ± 0.0085 | 0 | -0.0045 ± 0.0064 | -0.0005 ± 0.013 | 0.008 ± 0.0085 | 0.006 ± 0.0057 | 0.002 ± 0.0042 | 0.006 ± 0.0071 | 0.02 ± 0.0042 |
| SAg:CD38 | -0.0175 ± 0.13 | 0.038 ± 0.082 | -0.02 ± 0.034 | -0.03 ± 0.025 | -0.0275 ± 0.046 | -0.0075 ± 0.011 | 0.015 ± 0.038 | 0.0005 ± 0.029 | -0.0655 ± 0.046 | -0.0125 ± 0.026 | 0.001 ± 0.0071 | -0.019 ± 0.0085 | 0.0005 ± 0.00071 | 0.0005 ± 0.018 | 0.0065 ± 0.0021 | 0.001 ± 0.014 | 0.0035 ± 0.00071 | -0.015 ± 0.0042 | -0.0085 ± 0.029 | -0.005 ± 0.024 |
| BF4T:CCL2/MCP-1 | 0.041 ± 0.033 | -0.152 ± 0.32 | 0.013 ± 0.013 | 0.0145 ± 0.016 | 0.039 ± 0.045 | 0.0165 ± 0.005 | -0.012 ± 0.014 | 0.002 ± 0.021 | -0.073 ± 0.0099 | 0.0045 ± 0.023 | 0.003 ± 0.013 | 0.0505 ± 0.076 | 0.003 ± 0.011 | -0.0025 ± 0.0064 | -0.02 ± 0.031 | -0.003 ± 0.028 | -0.007 ± 0.028 | 0.017 ± 0.028 | -0.0105 ± 0.0092 | 0.011 ± 0.02 |
| BE3C:CXCL8/IL-8 | 0.0495 ± 0.0021 | 0.09 ± 0.013 | -0.001 ± 0.031 | -0.003 ± 0.025 | 0.013 ± 0.034 | 0.05 ± 0.086 | 0.0325 ± 0.046 | 0.043 ± 0.072 | -0.0515 ± 0.04 | -0.0015 ± 0.035 | 0.003 ± 0.0057 | 0.0545 ± 0.059 | -0.0565 ± 0.013 | -0.0485 ± 0.026 | -0.034 ± 0.083 | 0.0215 ± 0.04 | 0.01 ± 0.031 | 0.0605 ± 0.015 | -0.0175 ± 0.0078 | -0.007 ± 0.0057 |
